GI50 and TGI data for nine compounds are collected here from PubChem BioAssay (NCI).

Test systems include CAKI-1 renal; MOLT-4 leukemia; COLO 205 colon; KM12 colon; HL-60(TB) leukemia; OVCAR-4 ovarian; RXF 393 renal; UO-31 renal; EKVX NSCLC; ACHN renal.
Holding throughout (assay): NCI tumour cell line growth inhibition, 48 h

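1) Cells in 96-well plates. 2) Compound, 48 h, 5 concentrations. 3) Linear interpolation between surrounding doses. 4) Unreached endpoint = highest concentration. GI50: concentration for 50% inhibition of growth. TGI: concentration producing complete growth inhibition.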 Some results are limits rather than exact numbers.

Consider `O=C(Nc1ccc(I)cc1)c1cc([N+](=O)[O-])ccc1O`, for which the GI50 with CAKI-1 renal is 5.39 µM; in the assay with MOLT-4 leukemia, 4.67 µM; in the assay on COLO 205 colon it was 10.9 µM; in the assay with KM12 colon, 5.36 µM; in the assay with HL-60(TB) leukemia, 5.44 µM; in the assay on OVCAR-4 ovarian, 4.57 µM. Further, the GI50 in the assay with RXF 393 renal was 2.86 µM; in the assay on UO-31 renal it was 3.77 µM; with EKVX NSCLC it was 6.72 µM; in the assay with ACHN renal it was 9.28 µM. Also, the TGI in the assay with CAKI-1 renal was greater than 100 µM; with MOLT-4 leukemia, 51.3 µM; with COLO 205 colon, 28.1 µM; with KM12 colon, 40.9 µM; in the assay with HL-60(TB) leukemia, 57.8 µM; with OVCAR-4 ovarian, 90.8 µM. Further, the TGI in the assay with RXF 393 renal is 23.7 µM; with UO-31 renal, 47.6 µM; with EKVX NSCLC it was greater than 100 µM; in the assay with ACHN renal, greater than 100 µM.
Consider `Cn1ccnc1C(=O)/C=C/c1ccc(CC(=O)Nc2ccc(Br)cc2)cc1`, for which the GI50 in the assay on CAKI-1 renal was 3.59 µM; with MOLT-4 leukemia, 3.69 µM; in the assay with COLO 205 colon, 3.56 µM; in the assay on KM12 colon, 2.66 µM; in the assay with HL-60(TB) leukemia it was 4.58 µM; in the assay on OVCAR-4 ovarian, 4.52 µM. For the same compound, the GI50 in the assay on RXF 393 renal was 3.12 µM; in the assay with UO-31 renal it was 2.19 µM; with EKVX NSCLC it was 2.76 µM; in the assay on ACHN renal, 4.4 µM. For the same compound, the TGI with CAKI-1 renal is 11.6 µM; in the assay with MOLT-4 leukemia, 14.8 µM; in the assay on COLO 205 colon it was 8.28 µM; in the assay on KM12 colon, 5.51 µM; in the assay on HL-60(TB) leukemia, greater than 16.7 µM; with OVCAR-4 ovarian it was greater than 16.7 µM. The TGI in the assay with RXF 393 renal is 6.03 µM; with UO-31 renal, 4.39 µM; in the assay on EKVX NSCLC, 11.7 µM; in the assay on ACHN renal it was greater than 16.7 µM.
As for `C=C(CNCCO)[C@@H]1CC[C@]2(CO)CC[C@]3(C)[C@H](CC[C@@H]4[C@@]5(C)CCC(N)C(C)(C)[C@@H]5CC[C@]43C)[C@@H]12` (stereo not given in full), the GI50 is 4.86 µM in the assay with CAKI-1 renal; 1.99 µM in the assay on MOLT-4 leukemia; 1.73 µM in the assay with COLO 205 colon; 3.4 µM with KM12 colon; 1.89 µM in the assay on HL-60(TB) leukemia; 3.42 µM in the assay on OVCAR-4 ovarian. Further, the GI50 in the assay with RXF 393 renal is 1.53 µM; in the assay on UO-31 renal, 13.2 µM; in the assay with EKVX NSCLC it was 4.59 µM; in the assay with ACHN renal, 12.2 µM. Besides, the TGI with CAKI-1 renal turned out to be 18.1 µM; in the assay with MOLT-4 leukemia, 5.84 µM; with COLO 205 colon it was 3.35 µM; with KM12 colon, 10.1 µM; in the assay on HL-60(TB) leukemia it was 4.1 µM; with OVCAR-4 ovarian it was 13.6 µM. The TGI in the assay with RXF 393 renal is 3.08 µM; with UO-31 renal, 26.8 µM; in the assay with EKVX NSCLC, 18.1 µM; in the assay with ACHN renal, 25 µM.
Turning to `CN(C)CCCNC1=C(Cl)C(=O)c2ccccc2C1=O`, the GI50 in the assay with CAKI-1 renal was 7.14 µM; in the assay with MOLT-4 leukemia, 3.02 µM; in the assay with COLO 205 colon it was 1.9 µM; in the assay on KM12 colon it was 5.93 µM; in the assay with HL-60(TB) leukemia, 2.54 µM; with OVCAR-4 ovarian it was 1.62 µM. For the same compound, the GI50 is 1.69 µM in the assay on RXF 393 renal, 12.4 µM with UO-31 renal, 1.72 µM in the assay with EKVX NSCLC and 4.96 µM in the assay on ACHN renal. Moreover, the TGI in the assay on CAKI-1 renal came to 20.7 µM; in the assay with MOLT-4 leukemia it was 8.27 µM; in the assay on COLO 205 colon it was 3.45 µM; in the assay on KM12 colon it was 19.3 µM; with HL-60(TB) leukemia it was 5.84 µM; with OVCAR-4 ovarian, 2.98 µM. The TGI with RXF 393 renal turned out to be 3.14 µM; in the assay on UO-31 renal, 27 µM; in the assay on EKVX NSCLC it was 3.41 µM; in the assay on ACHN renal, 9.51 µM.
For the compound `CC(=O)C(CN(C(C)C)C(C)C)C(c1ccccc1)c1c(O)c2ccccc2oc1=O` (stereo not given), the TGI with CAKI-1 renal, in the assay on MOLT-4 leukemia, in the assay on COLO 205 colon, with KM12 colon, in the assay on HL-60(TB) leukemia and with OVCAR-4 ovarian was greater than 100 µM each time. The TGI in the assay on RXF 393 renal, with UO-31 renal, in the assay on EKVX NSCLC and with ACHN renal was greater than 100 µM throughout.
On to `O=C(N/C(=C\c1cc(Cl)ccc1Cl)c1nc2[nH]c(=S)[nH]c(=O)c2[nH]1)c1ccccc1`, for which the TGI was greater than 100 µM in the assay with CAKI-1 renal; greater than 80.8 µM in the assay on MOLT-4 leukemia; greater than 100 µM in the assay with COLO 205 colon; 73.6 µM in the assay on KM12 colon; 36.3 µM in the assay with HL-60(TB) leukemia; greater than 100 µM in the assay with OVCAR-4 ovarian. For the same compound, the TGI in the assay on RXF 393 renal is 41.5 µM; in the assay with UO-31 renal, greater than 76.4 µM; with EKVX NSCLC, greater than 79.6 µM; with ACHN renal, greater than 100 µM.
Take `COc1ccc(-n2/c(=N/C(=S)N(C)C)ss/c2=N\C(=S)N(C)C)cc1`: the TGI was greater than 100 µM with CAKI-1 renal; greater than 100 µM in the assay with MOLT-4 leukemia; greater than 100 µM in the assay on COLO 205 colon; greater than 100 µM in the assay with KM12 colon; greater than 100 µM in the assay on HL-60(TB) leukemia; 18.5 µM in the assay on OVCAR-4 ovarian. In addition, the TGI in the assay with RXF 393 renal, in the assay on UO-31 renal, with EKVX NSCLC and in the assay on ACHN renal was greater than 100 µM in each case.
As for `CCOc1ccccc1-n1c(CN2CCN(C(=O)COc3ccc(CNCCCCCCN4C5CCCC4CC(OC(=O)Nc4cc(C)ccc4OC)C5)cc3)CC2)nc2ccccc2c1=O` (stereo not given), the GI50 in the assay with CAKI-1 renal was 1.63 µM; in the assay on MOLT-4 leukemia, 0.68 µM; in the assay on COLO 205 colon, 1.78 µM; in the assay on KM12 colon, 1.66 µM; with HL-60(TB) leukemia, 0.64 µM; in the assay on OVCAR-4 ovarian, 1.75 µM. Further, the GI50 with RXF 393 renal is 1.38 µM; in the assay on UO-31 renal, 4.07 µM; with EKVX NSCLC, 1.67 µM; in the assay with ACHN renal, 2.4 µM. In addition, the TGI with CAKI-1 renal was 3.06 µM; in the assay with MOLT-4 leukemia, 1.5 µM; in the assay with COLO 205 colon, 3.69 µM; in the assay on KM12 colon it was 3.27 µM; in the assay with HL-60(TB) leukemia, 1.35 µM; in the assay on OVCAR-4 ovarian it was 3.34 µM. The TGI with RXF 393 renal was 2.88 µM; in the assay with UO-31 renal, 8.15 µM; with EKVX NSCLC, 3.33 µM; in the assay on ACHN renal, 5.9 µM.
`CN(CC(=O)O)S(=O)(=O)c1ccc2ccccc2c1`: the TGI in the assay on CAKI-1 renal, with MOLT-4 leukemia, with COLO 205 colon, in the assay with KM12 colon, with HL-60(TB) leukemia and in the assay with OVCAR-4 ovarian was greater than 100 µM each time. Besides, the TGI with RXF 393 renal, with UO-31 renal, in the assay on EKVX NSCLC and in the assay with ACHN renal was greater than 100 µM in each case.
